From article PMC5433425 (PeerJ, 2017)
Several values for one entry are separate records, joined by “and”; a condition that tells them apart may be missing. Identical values can stand only once. Peptide text beside a SMILES is read from it. * marks the point of attachment. βNA = c1ccc2cc(N*)ccc2c1

Experiments:
[1] = tested on: E. coli AG100; test: EtBr efflux by real-time fluorometry; conditions: 80 µM
Procedure: Control tubes with only cells and cells with and without 0.4% glucose were included. The fluorescence was measured in a Rotor-Gene 3000 and the data was acquired every 30 s for 30 min at 37 °C. The efflux activity was quantified by comparing the fluorescence data obtained under conditions that promote efflux (presence of glucose and absence of efflux inhibitor) with the data from the control in which the bacteria are under conditions of no efflux (presence of an inhibitor and no energy source).

[2] = tested on: E. coli AG100tet; test: EtBr accumulation by real-time fluorometry; conditions: EtBr 2 µg/ml + inhibitor 80 µM
[3] = tested on: E. coli AG100; test: Membrane potential assay (BacLight, DiOC2(3)); conditions: 80 µM
[4] = tested on: E. coli AG100; test: Membrane permeability assay (Live/Dead BacLight)
[5] = 80 uM, raw well reading, listed as PAN

SMILES: NC(N)=NCCC[C@H](NC(=O)[C@@H](N)Cc1ccccc1)C(=O)Nc1ccc2ccccc2c1 [PAβN] (H-Phe-Arg-βNA)
- EtBr fluorescence (Channel Cycling A.530/585hp) ([1]; cycle 22, without glucose): 1.19
- EtBr fluorescence (Channel Cycling A.530/585hp) ([1]; cycle 23, + glucose): 1.181
- EtBr fluorescence (Channel Cycling A.530/585hp) ([1]; cycle 23, without glucose): 1.1696
- EtBr fluorescence (Channel Cycling A.530/585hp) ([1]; cycle 24, + glucose): 1.1726
- EtBr fluorescence (Channel Cycling A.530/585hp) ([1]; cycle 24, without glucose): 1.092
- EtBr fluorescence (Channel Cycling A.530/585hp) ([1]; cycle 25, + glucose): 1.158
- EtBr fluorescence (Channel Cycling A.530/585hp) ([1]; cycle 25, without glucose): 1.1723
- EtBr fluorescence (Channel Cycling A.530/585hp) ([1]; cycle 26, + glucose): 1.17
- EtBr fluorescence (Channel Cycling A.530/585hp) ([1]; cycle 26, without glucose): 1.164
- EtBr fluorescence (Channel Cycling A.530/585hp) ([1]; cycle 27, + glucose): 1.169
- EtBr fluorescence (Channel Cycling A.530/585hp) ([1]; cycle 27, without glucose): 1.126
- EtBr fluorescence (Channel Cycling A.530/585hp) ([1]; cycle 28, + glucose): 1.177
- EtBr fluorescence (Channel Cycling A.530/585hp) ([1]; cycle 28, without glucose): 1.147
- EtBr fluorescence (Channel Cycling A.530/585hp) ([1]; cycle 29, + glucose): 1.1781
- EtBr fluorescence (Channel Cycling A.530/585hp) ([1]; cycle 29, without glucose): 1.123
- EtBr fluorescence (Channel Cycling A.530/585hp) ([1]; cycle 30, + glucose): 1.125
- EtBr fluorescence (Channel Cycling A.530/585hp) ([1]; cycle 30, without glucose): 1.105
- EtBr fluorescence (Channel Cycling A.530/585hp) ([1]; cycle 31, + glucose): 1.166
- EtBr fluorescence (Channel Cycling A.530/585hp) ([1]; cycle 31, without glucose): 1.145
- EtBr fluorescence (Channel Cycling A.530/585hp) ([1]; cycle 32, + glucose): 1.148
- EtBr fluorescence (Channel Cycling A.530/585hp) ([1]; cycle 32, without glucose): 1.083
- EtBr fluorescence (Channel Cycling A.530/585hp) ([1]; cycle 33, + glucose): 1.1593
- EtBr fluorescence (Channel Cycling A.530/585hp) ([1]; cycle 33, without glucose): 1.053
- EtBr fluorescence (Channel Cycling A.530/585hp) ([1]; cycle 34, + glucose): 1.173
- EtBr fluorescence (Channel Cycling A.530/585hp) ([1]; cycle 34, without glucose): 1.055
- EtBr fluorescence (Channel Cycling A.530/585hp) ([1]; cycle 35, + glucose): 1.1603
- EtBr fluorescence (Channel Cycling A.530/585hp) ([1]; cycle 35, without glucose): 1.086
- EtBr fluorescence (Channel Cycling A.530/585hp) ([1]; cycle 36, + glucose): 1.157
- EtBr fluorescence (Channel Cycling A.530/585hp) ([1]; cycle 36, without glucose): 1.095
- EtBr fluorescence (Channel Cycling A.530/585hp) ([1]; cycle 37, + glucose): 1.1393
- EtBr fluorescence (Channel Cycling A.530/585hp) ([1]; cycle 37, without glucose): 1.081
- EtBr fluorescence (Channel Cycling A.530/585hp) ([1]; cycle 38, + glucose): 1.174
- EtBr fluorescence (Channel Cycling A.530/585hp) ([1]; cycle 38, without glucose): 1.066
- EtBr fluorescence (Channel Cycling A.530/585hp) ([1]; cycle 39, + glucose): 1.096
- EtBr fluorescence (Channel Cycling A.530/585hp) ([1]; cycle 39, without glucose): 1.058
- EtBr fluorescence (Channel Cycling A.530/585hp) ([1]; cycle 40, + glucose): 1.115
- EtBr fluorescence (Channel Cycling A.530/585hp) ([1]; cycle 40, without glucose): 1.043
- EtBr fluorescence (Channel Cycling A.530/585hp) ([1]; cycle 41, + glucose): 1.134
- EtBr fluorescence (Channel Cycling A.530/585hp) ([1]; cycle 41, without glucose): 1.067
- EtBr fluorescence (Channel Cycling A.530/585hp) ([1]; cycle 42, + glucose): 1.162
- EtBr fluorescence (Channel Cycling A.530/585hp) ([1]; cycle 42, without glucose): 1.058
- EtBr fluorescence (Channel Cycling A.530/585hp) ([1]; cycle 43, + glucose): 1.125
- EtBr fluorescence (Channel Cycling A.530/585hp) ([1]; cycle 43, without glucose): 1.031
- EtBr fluorescence (Channel Cycling A.530/585hp) ([1]; cycle 44, + glucose): 1.108
- EtBr fluorescence (Channel Cycling A.530/585hp) ([1]; cycle 44, without glucose): 1.002
- EtBr fluorescence (Channel Cycling A.530/585hp) ([1]; cycle 45, without glucose): 0.9943
- EtBr fluorescence (Channel Cycling A.530/585hp) ([1]; cycle 46, without glucose): 1.025
- EtBr fluorescence (Channel Cycling A.530/585hp) ([1]; cycle 47, without glucose): 1.03
- EtBr fluorescence (Channel Cycling A.530/585hp) ([1]; cycle 48, without glucose): 1.056
- EtBr fluorescence (Channel Cycling A.530/585hp) ([1]; cycle 49, without glucose): 1.07
- EtBr fluorescence (Channel Cycling A.530/585hp) ([1]; cycle 50, without glucose): 1.062
- EtBr fluorescence (Channel Cycling A.530/585hp) ([1]; cycle 51, without glucose): 1.026
- EtBr fluorescence (Channel Cycling A.530/585hp) ([1]; cycle 52, without glucose): 1.029
- EtBr fluorescence (Channel Cycling A.530/585hp) ([1]; cycle 53, without glucose): 1.04
- EtBr fluorescence (Channel Cycling A.530/585hp) ([1]; cycle 54, without glucose): 1.019
- EtBr fluorescence (Channel Cycling A.530/585hp) ([1]; cycle 55, without glucose): 0.9589
- EtBr fluorescence (Channel Cycling A.530/585hp) ([1]; cycle 56, without glucose): 0.9927
- EtBr fluorescence (Channel Cycling A.530/585hp) ([1]; cycle 57, without glucose): 1.017
- EtBr fluorescence (Channel Cycling A.530/585hp) ([1]; cycle 58, without glucose): 0.9905
- EtBr fluorescence (Channel Cycling A.530/585hp) ([1]; cycle 59, without glucose): 1.041
- EtBr fluorescence (Channel Cycling A.530/585hp) ([1]; cycle 60, without glucose): 1.02
- EtBr fluorescence (Channel Cycling A.530/585hp) ([1]; cycle 61, without glucose): 1.0374
- EtBr fluorescence ([2]; cycle 1): 11.1278
- EtBr fluorescence ([2]; cycle 2): 12.695
- EtBr fluorescence ([2]; cycle 3): 14.0098
- EtBr fluorescence ([2]; cycle 4): 14.9916
- EtBr fluorescence ([2]; cycle 5): 15.9316
- EtBr fluorescence ([2]; cycle 6): 16.6928
- EtBr fluorescence ([2]; cycle 7): 17.1135
- EtBr fluorescence ([2]; cycle 8): 17.7313
- EtBr fluorescence ([2]; cycle 9): 18.0085
- EtBr fluorescence ([2]; cycle 10): 18.4427
- EtBr fluorescence ([2]; cycle 11): 18.7463
- EtBr fluorescence ([2]; cycle 12): 18.8264
- EtBr fluorescence ([2]; cycle 13): 19.2404
- EtBr fluorescence ([2]; cycle 14): 19.2594
- EtBr fluorescence ([2]; cycle 15): 19.2787
- EtBr fluorescence ([2]; cycle 16): 19.7369
- EtBr fluorescence ([2]; cycle 17): 19.738
- EtBr fluorescence ([2]; cycle 18): 20.2008
- EtBr fluorescence ([2]; cycle 19): 19.7958
- EtBr fluorescence ([2]; cycle 20): 20.1672
- EtBr fluorescence ([2]; cycle 21): 20.6387
- EtBr fluorescence ([2]; cycle 22): 20.6639
- EtBr fluorescence ([2]; cycle 23): 21.3214
- EtBr fluorescence ([2]; cycle 24): 21.3175
- EtBr fluorescence ([2]; cycle 25): 21.5239
- EtBr fluorescence ([2]; cycle 26): 21.9663
- EtBr fluorescence ([2]; cycle 27): 22.3215
- EtBr fluorescence ([2]; cycle 28): 22.6925
- EtBr fluorescence ([2]; cycle 29): 23.1641
- EtBr fluorescence ([2]; cycle 30): 23.4062
- membrane depolarization [3]: 14%
- BacLight Live/Dead fluorescence 485/20,528/20 [4, 5]: 168 and 192
- BacLight Live/Dead fluorescence 485/20,590/35 [4, 5]: 43 and 57
- membrane permeability increase / membrane permeation ([4]; AG100, 80 µM): 14%
